Counter-ions that a name gives are not always drawn.
Tests used:
prostacyclin synthetase [1] = target: T1, prostacyclin synthetase (Sus scrofa, UniProt A0A5G2QT35); conditions: pre-incubation of the enzyme; Prostaglandins, 1976, 12, 715; cited from earlier work
T1 construct: Pig aorta microsomes; from tissue; host or cells: pig aorta (microsomes)
T1 sequence (A0A5G2QT35 1-497): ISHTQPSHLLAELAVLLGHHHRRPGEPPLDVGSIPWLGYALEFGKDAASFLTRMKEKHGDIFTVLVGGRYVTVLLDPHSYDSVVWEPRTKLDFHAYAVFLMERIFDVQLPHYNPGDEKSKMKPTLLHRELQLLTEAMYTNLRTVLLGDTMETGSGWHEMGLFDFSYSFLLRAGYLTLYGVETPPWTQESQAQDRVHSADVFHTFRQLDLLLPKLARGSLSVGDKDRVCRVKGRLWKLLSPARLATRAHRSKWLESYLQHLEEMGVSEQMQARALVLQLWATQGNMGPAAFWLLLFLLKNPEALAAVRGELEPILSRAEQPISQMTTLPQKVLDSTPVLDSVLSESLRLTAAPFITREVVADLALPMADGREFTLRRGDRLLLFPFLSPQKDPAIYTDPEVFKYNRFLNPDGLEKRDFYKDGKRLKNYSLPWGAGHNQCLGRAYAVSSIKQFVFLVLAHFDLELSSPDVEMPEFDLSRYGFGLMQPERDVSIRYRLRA

cyclo-oxygenase enzyme = conditions: cited from earlier work
[2] = system: arachidonic acid induced death in rabbits; conditions: rabbit, intravenous injection of arachidonic acid; cited from earlier work
[3] = system: prostacyclin and thromboxane A2 levels; conditions: cited from earlier work
[4] = system: human blood platelet aggregation; conditions: human blood platelets; cited from earlier work
thromboxane synthetase = target: T2, thromboxane synthetase (Homo sapiens, UniProt P24557); assay: Thromboxane A2 (TxA2) synthetase inhibition (indomethacin pre-treated human platelet microsomes, rabbit aorta superfusion bioassay); assay type: biochemical; conditions: 5 min pre-incubation, isometric tension of rabbit aorta, read-out: Molar concentration causing 50% inhibition of (1) thromboxane synthetase
T2 construct: Indomethacin pre-treated human platelet microsomes; from tissue; host or cells: human blood platelets (microsomes)
T2 sequence (P24557 1-533): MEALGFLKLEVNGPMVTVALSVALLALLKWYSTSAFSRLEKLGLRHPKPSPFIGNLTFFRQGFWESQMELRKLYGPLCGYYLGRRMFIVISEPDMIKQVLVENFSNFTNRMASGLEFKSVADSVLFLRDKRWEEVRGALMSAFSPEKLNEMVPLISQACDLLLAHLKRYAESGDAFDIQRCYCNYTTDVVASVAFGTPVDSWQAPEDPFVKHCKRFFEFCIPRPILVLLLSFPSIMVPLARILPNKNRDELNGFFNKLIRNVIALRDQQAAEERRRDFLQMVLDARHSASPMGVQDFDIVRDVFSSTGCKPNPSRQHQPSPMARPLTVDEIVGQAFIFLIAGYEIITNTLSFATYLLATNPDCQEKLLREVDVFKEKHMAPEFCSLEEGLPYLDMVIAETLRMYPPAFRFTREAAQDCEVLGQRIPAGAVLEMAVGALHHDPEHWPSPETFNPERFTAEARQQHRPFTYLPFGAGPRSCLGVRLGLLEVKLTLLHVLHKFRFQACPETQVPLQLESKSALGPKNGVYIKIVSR
Procedure: 3. Thromboxane A2 (TxA2) Synthetase
Indomethacin pre-treated human platelet microsomes (Science 1976, 193, 163) are incubated (2 min.: 0° C.) with PGH2 (produced as in 1) and aliquots of the reaction mixture superfused over two rabbit aorta spirals which are separated by a delay coil (2 min.). The latter is required to allow the selective decay of the more unstable thromboxane A2 (Proc. Nat. Acad. Sci., 1975, 72, 2994) thereby enabling the separate measurement of increased isometric tension due to the TxA2 formed and the PGH2 remaining. The test compound is pre-incubated with the enzyme for 5 minutes, and its ability to inhibit the thromboxane synthetase enzyme is measured as its reduction of the TxA2 component of the isometric tension.
(§1) The results of these tests are shown in the following Table, which gives the molar concentration of each compound which caused a 50% change in the effect of the relevant enzyme on isometric tension, i.e. caused a 50% inhibition of the action of that enzyme.

prostacyclin synthetase [5] = target: T1, prostacyclin synthetase; assay: Prostacyclin (PGI2) synthetase inhibition (pig aorta microsomes, rabbit aorta bioassay); assay type: biochemical; conditions: 5 min pre-incubation, isometric tension of rabbit aorta, read-out: Molar concentration causing 50% inhibition of (3) prostacyclin synthetase
Procedure: 2. Prostacyclin (PGI2) Synthetase
Pig aorta microsomes (Nature, 1976, 263, 663) are incubated (30 sec.: 22° C.) with PGH2 produced as in 1) and aliquots bio-assayed as in 1. […] The test compound is then pre-incubated with the enzyme for 5 minutes, and its ability to prevent the decrease in tension is measured.
as §1

cyclo-oxygenase = target: T3, cyclo-oxygenase (Ovis aries, UniProt P05979); assay: Cyclo-oxygenase inhibition (ram seminal vesicle microsomes, rabbit aorta strip bioassay); assay type: biochemical; conditions: 5 min pre-incubation, isometric tension of rabbit aorta, read-out: Molar concentration causing 50% inhibition of (2) cyclo-oxygenase
T3 construct: Ram seminal vesicle microsomes; from tissue; host or cells: ram seminal vesicle (microsomes)
T3 sequence (P05979 25-600): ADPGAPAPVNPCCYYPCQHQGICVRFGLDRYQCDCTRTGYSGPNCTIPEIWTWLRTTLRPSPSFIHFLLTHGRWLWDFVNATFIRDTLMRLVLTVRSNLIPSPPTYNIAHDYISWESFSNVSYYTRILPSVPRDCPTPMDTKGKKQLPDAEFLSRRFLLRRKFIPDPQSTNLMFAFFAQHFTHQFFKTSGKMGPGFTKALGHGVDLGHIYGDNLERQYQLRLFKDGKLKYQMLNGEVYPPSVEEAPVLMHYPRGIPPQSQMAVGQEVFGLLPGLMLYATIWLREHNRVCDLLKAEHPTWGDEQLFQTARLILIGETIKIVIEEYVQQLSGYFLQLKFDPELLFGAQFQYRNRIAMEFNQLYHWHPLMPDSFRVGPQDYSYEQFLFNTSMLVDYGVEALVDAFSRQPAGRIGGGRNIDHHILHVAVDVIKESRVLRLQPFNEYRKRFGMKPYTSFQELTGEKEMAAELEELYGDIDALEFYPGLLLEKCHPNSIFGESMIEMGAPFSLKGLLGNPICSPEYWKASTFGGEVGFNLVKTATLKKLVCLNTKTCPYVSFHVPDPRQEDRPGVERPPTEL
Procedure: Ram seminal vesicle microsomes (Biochemistry, 1971, 10, 2372) are incubated with arachidonic acid (100 μM: 1 min.: 22°) to produce PGH2 and aliquots of the reaction mixture injected into a stream of Krebs-bicarbonate at 37° C. (containing a mixture of antagonists (Nature, […], 218, 1135) and indomethacin (Brit. J. Pharmacol., 1972, 45, 451) which is superfusing a spirally-cut rabbit aorta strip (Nature, 1969, 223, 29). The ability of a compound to inhibit the enzyme is measured by comparing the increases in isometric tension produced by PGH2 in the absence of the test compound, and following pre-incubation of the enzyme with the test compound for 5 minutes.
as §1

aggregation of platelets = conditions: rats, abdominal aorta, in vivo; cited from earlier work

Row | IC50 (thromboxane synthetase) | IC50 (cyclo-oxygenase) | Compound | other results
1 |  |  | 15-hydroperoxy-arachidonic acid | prevention of the decrease in PGH2-induced tension (PGI2 synthetase inhibition, in words) (prostacyclin synthetase [1]): prevented completely
2 |  |  | CC(=O)Oc1ccccc1C(=O)O [Aspirin] | inhibition of the cyclo-oxygenase enzyme (in words) (cyclo-oxygenase enzyme): inhibit the cyclo-oxygenase enzyme; protection from the lethal effect of intravenous arachidonic acid [2]: protect the rabbit from the lethal effect of the injection; effect on prostacyclin and thromboxane A2 levels (in words) [3]: reduce both the prostacyclin and thromboxane A2 levels; inhibitory activity in vitro against a variety of aggregating agents [4]: show inhibitory activity in vitro against a variety of aggregating agents
3 | 8.2 nM | > 100000 nM | Cc1ccc(OCC(=O)O)c(Cn2ccnc2)c1 [Example 2, 2-(1-Imidazolylmethyl)-4-methyl-phenoxyacetic acid hydrochloride hemihydrate] | IC50 (prostacyclin synthetase [5]): > 100000 nM
4 | 2.4 nM | > 100000 nM | Cc1ccc(OCCCC(N)=O)c(Cn2ccnc2)c1 [Example 4, 4-[2-(1-Imidazolylmethyl)-4-methyl-phenoxy]butyramide] | 
5 | 47 nM | > 100000 nM | Cc1ccc(OCc2ccc(C(=O)O)cc2)c(Cn2ccnc2)c1 [Example 5, 4-[2-(1-Imidazolylmethyl)-4-methyl-phenoxymethyl]benzoic acid] | 
6 | 46 nM | > 100000 nM | NC(=O)COc1ccc(Cn2ccnc2)cc1 [Example 8, 4-(1-Imidazolylmethyl)phenoxyacetamide] | 
7 | 4.5 nM |  | O=C(O)COc1cccc(Cn2ccnc2)c1 [Example 24, 3-(1-Imidazolylmethyl)phenoxyacetic acid hydrochloride] | 
8 |  |  | O=C1C(CC[S+]([O-])c2ccccc2)C(=O)N(c2ccccc2)N1c1ccccc1 (stereo not drawn) [sulphinpyrazone] | protection from the lethal effect of intravenous arachidonic acid [2]: protect the rabbit from the lethal effect of the injection; prevention of the aggregation of platelets in an extra corporeal loop (aggregation of platelets): prevent the aggregation of platelets; inhibitory activity in vitro against a variety of aggregating agents [4]: show inhibitory activity in vitro against a variety of aggregating agents

Reference: patent US4448781A, “N-Benzyl-imidazoles as selective inhibitors of the thromboxane synthetase enzyme” (Pfizer Inc., priority 1979, dated 1984)
